± gives the expanded uncertainty stated by the source.
Experiment: xn = mol fraction of the nth substance listed
Conditions: 100 kPa, Liquid; for viscosity: Falling or rolling sphere viscometry; for mass density: Vibrating tube method

CCCC[N+]1(C)CCCC1.N#CN=C=[N-] [1-butyl-1-methylpyrrolidinium dicyanamide] + O
Conditions | mass density, 298.15 K [kg/m3] | mass density, 303.15 K [kg/m3] | mass density, 308.15 K [kg/m3] | mass density, 313.15 K [kg/m3] | mass density, 318.15 K [kg/m3] | viscosity, 298.15 K [mPa·s] | viscosity, 303.15 K [mPa·s] | viscosity, 308.15 K [mPa·s] | viscosity, 313.15 K [mPa·s] | viscosity, 318.15 K [mPa·s]
x1 = 0.0729 | 1007.24 ± 0.21 | 1004.74 ± 0.21 | 1001.6 ± 0.2 | 998.69 ± 0.21 | 995.65 ± 0.21 | 4.316 ± 0.69 | 3.713 ± 0.6 | 3.226 ± 0.52 | 2.83 ± 0.45 | 2.5 ± 0.4
x1 = 0.1652 | 1012.47 ± 0.22 | 1009.29 ± 0.22 | 1006.1 ± 0.22 | 1002.9 ± 0.22 | 999.68 ± 0.22 | 7.983 ± 1.3 | 6.795 ± 1.1 | 5.903 ± 0.95 | 5.143 ± 0.82 | 4.486 ± 0.72
x1 = 0.2234 | 1014.18 ± 0.24 | 1010.84 ± 0.24 | 1007.7 ± 0.24 | 1004.59 ± 0.23 | 1001.37 ± 0.23 | 9.939 ± 1.6 | 8.502 ± 1.4 | 7.346 ± 1.2 | 6.408 ± 1 | 5.632 ± 0.9
x1 = 0.3163 | 1015.68 ± 0.28 | 1012.43 ± 0.28 | 1009.37 ± 0.28 | 1006.34 ± 0.27 | 1003.18 ± 0.27 | 12.88 ± 2.1 | 11.02 ± 1.8 | 9.521 ± 1.5 | 8.303 ± 1.3 | 7.302 ± 1.2
x1 = 0.3548 | 1016.11 ± 0.3 | 1012.9 ± 0.3 | 1009.87 ± 0.3 | 1006.88 ± 0.3 | 1003.78 ± 0.3 | 13.94 ± 2.2 | 11.96 ± 1.9 | 10.37 ± 1.7 | 9 ± 1.4 | 7.982 ± 1.3
x1 = 0.4198 | 1016.65 ± 0.35 | 1013.55 ± 0.35 | 1010.57 ± 0.35 | 1007.61 ± 0.34 | 1004.58 ± 0.34 | 15.86 ± 2.5 | 13.57 ± 2.2 | 11.73 ± 1.9 | 10.23 ± 1.6 | 9.005 ± 1.4
x1 = 0.4762 | 1016.99 ± 0.4 | 1014 ± 0.4 | 1011.05 ± 0.4 | 1008.11 ± 0.4 | 1005.15 ± 0.39 | 17.41 ± 2.8 | 14.9 ± 2.4 | 12.88 ± 2.1 | 11.23 ± 1.8 | 9.9 ± 1.6
x1 = 0.5239 | 1017.27 ± 0.45 | 1014.32 ± 0.45 | 1011.4 ± 0.45 | 1008.46 ± 0.44 | 1005.54 ± 0.44 | 18.57 ± 3 | 15.9 ± 2.6 | 13.75 ± 2.2 | 12 ± 1.9 | 10.57 ± 1.7
x1 = 0.6244 | 1017.71 ± 0.59 | 1014.87 ± 0.59 | 1011.99 ± 0.58 | 1009.1 ± 0.58 | 1006.25 ± 0.58 | 21.49 ± 3.4 | 18.37 ± 2.9 | 15.87 ± 2.6 | 13.83 ± 2.2 | 12.17 ± 1.9
x1 = 0.629 | 1017.73 ± 0.6 | 1014.89 ± 0.6 | 1012.02 ± 0.59 | 1009.13 ± 0.59 | 1006.28 ± 0.58 | 21.62 ± 3.5 | 18.48 ± 3 | 15.96 ± 2.6 | 13.91 ± 2.2 | 12.24 ± 2
x1 = 0.711 | 1018.09 ± 0.74 | 1015.28 ± 0.73 | 1012.42 ± 0.73 | 1009.55 ± 0.72 | 1006.71 ± 0.72 | 24.03 ± 3.9 | 20.5 ± 3.3 | 17.69 ± 2.8 | 15.4 ± 2.5 | 13.55 ± 2.2
x1 = 0.7413 | 1018.22 ± 0.8 | 1015.41 ± 0.79 | 1012.56 ± 0.78 | 1009.72 ± 0.78 | 1006.88 ± 0.77 | 24.99 ± 4 | 21.31 ± 3.4 | 18.34 ± 2.9 | 15.98 ± 2.6 | 14.02 ± 2.2
x1 = 0.8776 | 1018.79 ± 1.1 | 1015.96 ± 1.1 | 1013.13 ± 1.1 | 1010.35 ± 1.1 | 1007.51 ± 1.1 | 29.68 ± 4.8 | 25.19 ± 4 | 21.64 ± 3.5 | 18.78 ± 3 | 16.46 ± 2.6
x1 = 0.9732 | 1019.13 ± 1.3 | 1016.28 ± 1.3 | 1013.47 ± 1.3 | 1010.72 ± 1.3 | 1007.94 ± 1.3 | 33.6 ± 5.4 | 28.4 ± 4.6 | 24.32 ± 3.9 | 21.05 ± 3.4 | 18.4 ± 3
x1 = 1 | 1019.2 ± 1.4 | 1016.38 ± 1.4 | 1013.58 ± 1.3 | 1010.79 ± 1.3 | 1008 ± 1.3 | 34.74 ± 5.6 | 29.33 ± 4.7 | 25.09 ± 4 | 21.7 ± 3.5 | 18.95 ± 3

Source: the NIST ThermoML archive (doi:10.1016/j.jct.2013.10.034)
